Patent US4740233A, “Substituted 1,2,4-triazolo[1,5-a]-pyrimidine-2-sulfonamides and compositions and methods of controlling undesired vegetation and suppressing the nitrification of ammonium nitrogen in soil” (The Dow Chemical Company, priority 1986, dated 1988)

Columns and labels:
[1] = test system: cotton; assay: Postemergent control of plant species; format: in vivo, Gossypium spp.; conditions: for plant injury at 500 ppm: Gossypium hirsutum, post-emergence, 336 h, read-out: percent postemergent control
How it was run: (§1)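 Foliar spray, 2-4 leaf stage, greenhouse. Formulation: acetone solution (2x final conc.) mixed 1:1 with water + 0.1% surface active agent. ~2 wk hold, watered as needed. Readout = % growth reduction vs untreated same-species controls.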

[2] = test system: rape; assay: Postemergent control of plant species; format: in vivo, Brassica napus; conditions: for plant injury at 500 ppm: Brassica napus, post-emergence, 336 h, read-out: percent postemergent control
How it was run: as §1

[3] = test system: soybean; assay: Postemergent control of plant species; format: in vivo, Glycine max.; conditions: for plant injury at 500 ppm: Glycine max, post-emergence, 336 h, read-out: percent postemergent control
How it was run: as §1

[4] = test system: sugar beet; assay: Postemergent control of plant species; format: in vivo, Beta saccharifera; conditions: for plant injury at 500 ppm: Beta vulgaris, post-emergence, 336 h, read-out: percent postemergent control
How it was run: as §1

[5] = test system: cocklebur; assay: Postemergent control of plant species; format: in vivo, Xanthium spp.; conditions: for pest or weed control at 500 ppm: Xanthium strumarium, post-emergence, 336 h, read-out: percent postemergent control
How it was run: as §1

[6] = test system: jimsonweed; assay: Postemergent control of plant species; format: in vivo, Datura stramonium; conditions: for pest or weed control at 500 ppm: Datura stramonium, post-emergence, 336 h, read-out: percent postemergent control
How it was run: as §1

[7] = test system: annual morning glory; assay: Postemergent control of plant species; format: in vivo, Ipomoea spp.; conditions: for pest or weed control at 500 ppm: Ipomoea, post-emergence, 336 h, read-out: percent postemergent control
How it was run: as §1

[8] = test system: pigweed; assay: Postemergent control of plant species; format: in vivo, Amaranthus spp.; conditions: for pest or weed control at 500 ppm: Amaranthus retroflexus, post-emergence, 336 h, read-out: percent postemergent control
How it was run: as §1

[9] = test system: velvetleaf; assay: Postemergent control of plant species; format: in vivo, Abutilon theophrasti; conditions: for pest or weed control at 500 ppm: Abutilon theophrasti, post-emergence, 336 h, read-out: percent postemergent control
How it was run: as §1

[10] = test system: corn; assay: Postemergent control of plant species; format: in vivo, Zea mays; conditions: for plant injury at 500 ppm: Zea mays, post-emergence, 336 h, read-out: percent postemergent control
How it was run: as §1

[11] = test system: rice; assay: Postemergent control of plant species; format: in vivo, Oryza sativa; conditions: for plant injury at 500 ppm: Oryza sativa, post-emergence, 336 h, read-out: percent postemergent control
How it was run: as §1

[12] = test system: sorghum; assay: Postemergent control of plant species; format: in vivo, Sorghum vulgare; conditions: for plant injury at 500 ppm: Sorghum, post-emergence, 336 h, read-out: percent postemergent control
How it was run: as §1

[13] = test system: wheat; assay: Postemergent control of plant species; format: in vivo, Triticum aestivum; conditions: for plant injury at 500 ppm: Triticum aestivum, post-emergence, 336 h, read-out: percent postemergent control
How it was run: as §1

[14] = test system: barnyardgrass; assay: Postemergent control of plant species; format: in vivo, Echinochloa crusgalli; conditions: for pest or weed control at 500 ppm: Echinochloa crus-galli, post-emergence, 336 h, read-out: percent postemergent control
How it was run: as §1

[15] = test system: crabgrass; assay: Postemergent control of plant species; format: in vivo, Digitaria spp.; conditions: for pest or weed control at 500 ppm: Digitaria sanguinalis, post-emergence, 336 h, read-out: percent postemergent control
How it was run: as §1

[16] = test system: yellow foxtail; assay: Postemergent control of plant species; format: in vivo, Setaria lutescens; conditions: for pest or weed control at 500 ppm: Setaria, post-emergence, 336 h, read-out: percent postemergent control
How it was run: as §1

[17] = test system: johnson grass; assay: Postemergent control of plant species; format: in vivo, Sorghum halepense; conditions: for pest or weed control at 500 ppm: Sorghum halepense, post-emergence, 336 h, read-out: percent postemergent control
How it was run: as §1

[18] = test system: wild oats; assay: Postemergent control of plant species; format: in vivo, Avena fatua; conditions: for pest or weed control at 500 ppm: Avena fatua, post-emergence, 336 h, read-out: percent postemergent control
How it was run: as §1

[19] = test system: yellow nutsedge; assay: Postemergent control of plant species; format: in vivo, Cyperus esculentus; conditions: for pest or weed control at 500 ppm: Cyperus, post-emergence, 336 h, read-out: percent postemergent control
How it was run: as §1

[20] = test system: rice; assay: Control of aquatic plant species (paddy water); format: in vivo, Oryza sativa; conditions: nine days
How it was run: (§2)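 1-2 inch plants transplanted into ~2 in soil, flooded ~1 in deep; acetone concentrate injected into floodwater, volume adjusted for target concentration; % control scored at 9 days.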

[21] = test system: barnyardgrass; assay: Control of aquatic plant species (paddy water); format: in vivo, Echinochloa crusgalli; conditions: nine days
Method: In testing for such utility, the plant species to be tested were transplanted into 16 oz. containers into about 2 inches of soil when they were in the 1-2 inch stage and then flooded to a depth of about 1 inch. An acetone concentrate of the chemical to be tested was then injected into the paddy water, the volume injected being varied as desired to provide the desired concentration. Percent control was evaluated nine days after application.

[22] = test system: sprangletop; assay: Control of aquatic plant species (paddy water); format: in vivo, Leptochloa filiformis; conditions: nine days
How it was run: as §2

[23] = test system: yellow nutsedge; assay: Control of aquatic plant species (paddy water); format: in vivo, Cyperus esculentus; conditions: nine days
How it was run: as §2

[24] = test system: nitrification of ammonium nitrogen; assay: Suppression of nitrification of ammonium nitrogen in soil; conditions: 27° C.
How it was run: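 Soil (20 g) moistened to its 1/3 bar tension value, mixed with test chemical and incubated sealed for two weeks at 27° C. Nitrate extracted with ammonium sulfate solution and measured by nitrate-specific ion electrode; value given as % NH4-N remaining.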

## Cc1cc(C)n2nc(S(=O)(=O)Nc3cccc(Cl)c3)nc2n1 [Compound 17]
[1]
  plant injury at 500 ppm: 15%
[2]
  plant injury at 500 ppm: 70%
[3]
  plant injury at 500 ppm: 15%
[4]
  plant injury at 500 ppm: 10%
[5]
  pest or weed control at 500 ppm: 10%
[6]
  pest or weed control at 500 ppm: 0%
[7]
  pest or weed control at 500 ppm: 0%
[8]
  pest or weed control at 500 ppm: 50%
[9]
  pest or weed control at 500 ppm: 70%
[10]
  plant injury at 500 ppm: 20%
[11]
  plant injury at 500 ppm: 0%
[12]
  plant injury at 500 ppm: 40%
[13]
  plant injury at 500 ppm: 0%
[14]
  pest or weed control at 500 ppm: 0%
[15]
  pest or weed control at 500 ppm: 0%
[16]
  pest or weed control at 500 ppm: 20%
[17]
  pest or weed control at 500 ppm: 60%
[18]
  pest or weed control at 500 ppm: 0%
[19]
  pest or weed control at 500 ppm: 0%
[20]; Oryza sativa, 216 h, 4.0 Kg/Ha, read-out: Percent control
  pest or weed control at 4000 g/ha: 97%
[21]; Echinochloa crus-galli, 216 h, 4.0 Kg/Ha, read-out: Percent control
  pest or weed control at 4000 g/ha: 40%
[22]; Leptochloa filiformis, 216 h, 4.0 Kg/Ha, read-out: Percent control
  pest or weed control at 4000 g/ha: 0%
[23]; Cyperus, 216 h, 4.0 Kg/Ha, read-out: Percent control
  pest or weed control at 4000 g/ha: 90%
[24]; 0.01 ppm
  % NH4-N Remaining After 2 Weeks Incubation: 0%
[24]; 0.1 ppm
  % NH4-N Remaining After 2 Weeks Incubation: 1%
[24]; 1 ppm
  % NH4-N Remaining After 2 Weeks Incubation: 38%
[24]; 10 ppm
  % NH4-N Remaining After 2 Weeks Incubation: 80%

## Cc1cc(C)n2nc(S(=O)(=O)Nc3c(C)cccc3C)nc2n1 [Compound 32, 5,7-dimethyl-N-(2,6-dimethylphenyl)-1,2,4-triazolo[1,5-a]pyrimidine-2-sulfonamide]
[1]
  plant injury at 500 ppm: 20%
[2]
  plant injury at 500 ppm: 0%
[3]
  plant injury at 500 ppm: 15%
[4]
  plant injury at 500 ppm: 30%
[5]
  pest or weed control at 500 ppm: 15%
[6]
  pest or weed control at 500 ppm: 60%
[7]
  pest or weed control at 500 ppm: 0%
[8]
  pest or weed control at 500 ppm: 0%
[9]
  pest or weed control at 500 ppm: 50%
[10]
  plant injury at 500 ppm: 0%
[11]
  plant injury at 500 ppm: 10%
[12]
  plant injury at 500 ppm: 0%
[13]
  plant injury at 500 ppm: 30%
[14]
  pest or weed control at 500 ppm: 0%
[15]
  pest or weed control at 500 ppm: 10%
[16]
  pest or weed control at 500 ppm: 10%
[17]
  pest or weed control at 500 ppm: 95%
[18]
  pest or weed control at 500 ppm: 0%
[19]
  pest or weed control at 500 ppm: 0%
[20]; Oryza sativa, 216 h, 0.5 Kg/Ha, read-out: Percent control
  pest or weed control at 500 g/ha: 93%
[21]; Echinochloa crus-galli, 216 h, 0.5 Kg/Ha, read-out: Percent control
  pest or weed control at 500 g/ha: 97%
[22]; Leptochloa filiformis, 216 h, 0.5 Kg/Ha, read-out: Percent control
  pest or weed control at 500 g/ha: 95%
[23]; Cyperus, 216 h, 0.5 Kg/Ha, read-out: Percent control
  pest or weed control at 500 g/ha: 95%
[24]; 0.01 ppm
  % NH4-N Remaining After 2 Weeks Incubation: 0%
[24]; 0.1 ppm
  % NH4-N Remaining After 2 Weeks Incubation: 33%
[24]; 1 ppm
  % NH4-N Remaining After 2 Weeks Incubation: 82%
[24]; 10 ppm
  % NH4-N Remaining After 2 Weeks Incubation: 100%

## Cc1nc2nc(S(=O)(=O)Nc3c(Cl)cccc3Cl)nn2c2c1CCC2 [Compound 108, 6,7-cyclopentano-5-methyl-N-(2,6-dichlorophenyl)-1,2,4-triazolo[1,5-a]pyrimidine-2-sulfonamide]
[1]; 500 ppm
  percent postemergent control: 70%
[2]; 500 ppm
  percent postemergent control: 40%
[3]; 500 ppm
  percent postemergent control: 75%
[4]; 500 ppm
  percent postemergent control: 70%
[5]; 500 ppm
  percent postemergent control: 80%
[6]; 500 ppm
  percent postemergent control: 30%
[7]; 500 ppm
  percent postemergent control: 10%
[8]; 500 ppm
  percent postemergent control: 0%
[9]; 500 ppm
  percent postemergent control: 90%
[10]; 500 ppm
  percent postemergent control: 80%
[11]; 500 ppm
  percent postemergent control: 0%
[12]; 500 ppm
  percent postemergent control: 80%
[13]; 500 ppm
  percent postemergent control: 60%
[14]; 500 ppm
  percent postemergent control: 100%
[15]; 500 ppm
  percent postemergent control: 0%
[16]; 500 ppm
  percent postemergent control: 0%
[17]; 500 ppm
  percent postemergent control: 100%
[18]; 500 ppm
  percent postemergent control: 0%
[19]; 500 ppm
  percent postemergent control: 35%
[20]; 1.0 Kg/Ha
  Percent control: 97%
[21]; 1.0 Kg/Ha
  Percent control: 97%
[22]; 1.0 Kg/Ha
  Percent control: 97%
[23]; 1.0 Kg/Ha
  Percent control: 90%
[24]; 0.01 ppm
  % NH4-N Remaining After 2 Weeks Incubation: 43%
[24]; 0.1 ppm
  % NH4-N Remaining After 2 Weeks Incubation: 69%
[24]; 1 ppm
  % NH4-N Remaining After 2 Weeks Incubation: 84%
[24]; 10 ppm
  % NH4-N Remaining After 2 Weeks Incubation: 90%
